Test results: patent US9180128B2, “Stable pharmaceutical compositions of 5,10-methylene tetrahydrofolate” (MERCK & CIE, priority 2003, dated 2015)
Like-named read-outs stand apart in the source and are kept apart here.

How the values were obtained:
[1] = Storage stability of untreated reference sample; type: physicochemical; settings: storage at +25° C
[2] = physiological common salt solution, +25° C, cited from earlier work

SMILES | % relative stability ([1]; 0 months) [%] | % relative stability ([1]; 0.5 months) [%] | % relative stability ([1]; 1.0 months) [%] | % relative stability ([1]; 1.75 months) [%] | % relative stability ([1]; 2.5 months) [%] | % relative stability ([1]; 4.5 months) [%] | % relative stability ([1]; 9.2 months) [%] | % relative stability ([1]; 19.0 months) [%] | % relative stability ([2]; with the exclusion of air, 0 hours) [%] | % relative stability ([2]; with the exclusion of air, 4.0 hours) [%] | % relative stability ([2]; with the exclusion of air, 24.0 hours) [%] | % relative stability ([2]; with the exclusion of air, 26.0 hours) [%] | % relative stability ([2]; with the exclusion of air, 48.0 hours) [%] | % relative stability ([2]; without the exclusion of air, 0 hours) [%] | % relative stability ([2]; without the exclusion of air, 4.0 hours) [%] | % relative stability ([2]; without the exclusion of air, 24.0 hours) [%] | % relative stability ([2]; without the exclusion of air, 26.0 hours) [%] | % relative stability ([2]; without the exclusion of air, 48.0 hours) [%]
Nc1nc2c(c(=O)[nH]1)N1CN(c3ccc(C(=O)N[C@@H](CCC(=O)[O-])C(=O)O)cc3)C[C@H]1CN2.Nc1nc2c(c(=O)[nH]1)N1CN(c3ccc(C(=O)N[C@@H](CCC(=O)[O-])C(=O)O)cc3)C[C@H]1CN2.[Ca+2] [Co 751, calcium salt of 5,10-methylene-(6R)-tetrahydrofolic acid] | 100.0 | 92.3 | 83.4 | 77.2 | 71.9 | 61.5 | 49.1 | 43.0 | – | – | – | – | – | – | – | – | – | –
Nc1nc2c(c(=O)[nH]1)N1CN(c3ccc(C(=O)N[C@@H](CCC(=O)[O-])C(=O)O)cc3)C[C@H]1CN2.Nc1nc2c(c(=O)[nH]1)N1CN(c3ccc(C(=O)N[C@@H](CCC(=O)[O-])C(=O)O)cc3)C[C@H]1CN2.[Ca+2] [calcium salt of 5,10-methylene-(6R,S)-tetrahydrofolic acid] | – | – | – | – | – | – | – | – | 100.0 | 58.0 | 38.0 | 18.0 | 8.0 | 100.0 | 84 | 12.0 | 8.0 | 6.0
